Measurements as given in patent publication US12006296B1, “5-(4-methoxyphenyl)-1-hexyl-2-(4-nitrophenyl)-4-phenyl-1H-imidazoleas an antimicrobial compound” (KING FAISAL UNIVERSITY, priority 2023, dated 2024).

What was measured:
Assay type in all cases: cell-based
Ps. aeruginosa = experiment: Antimicrobial testing by agar dilution, Ps. aeruginosa; settings: Pseudomonas aeruginosa; after 10, 20, 40 and 60 min at all dilutions 1:100, 1:200, 1:400, 1:800; summary in words
Protocol: (§1) The antimicrobial properties of the 5-(4-methoxyphenyl)-1-hexyl-2-(4-nitrophenyl)-4-phenyl-1H-imidazole was studied by the method of agar dilution. Test solutions of each compound was prepared in concentration of 1% using dimethylformamide as a solvent then they are diluted in physiological solution to obtain the final experimental dilutions 1:100, 1:200, 1:400, 1:800. The effect of these substances are compared with furacillin in a controllable study. The testing microbes used were gram positive bacteria St. Aereus, gram negative bacteria E. Coli, Ps. aeruginosa and Candida albicans fungi were taken. The experiments used for this survey were meat-pentonlu agar (EPA) for cultivation of bacteria and Saburo environment for fungi. Each experiment used 1 ml of test solution on each plate 500 min. Add 2 drops of emulsified with microbes feel. All experimental samples were taken from the agar after 10, 20, 40, 60 minutes in the environment on the basis of Patrk planted. Bacteria were cultivated at a temperature of 37° C. for 1 day and the mushroom was kept in a thermostat for […] at a temperature of 28° C. in the. Then results were checked.

St. Aereus = experiment: Antimicrobial testing by agar dilution, St. Aereus; settings: Staphylococcus aureus; after 10, 20, 40 and 60 min at all dilutions 1:100, 1:200, 1:400, 1:800; summary in words
Protocol: as §1

E. Coli = experiment: Antimicrobial testing by agar dilution, E. Coli; settings: Escherichia coli; after 10, 20, 40 and 60 min at all dilutions 1:100, 1:200, 1:400, 1:800; summary in words
Protocol: as §1

Candida albicans = experiment: Antimicrobial testing by agar dilution, Candida albicans; settings: after 10, 20, 40 and 60 min at all dilutions 1:100, 1:200, 1:400, 1:800, summary in words
Protocol: as §1

Measured: inhibition activity

CCCCCCn1c(-c2ccc([N+](=O)[O-])cc2)nc(-c2ccccc2)c1-c1ccc(OC)cc1 [5-(4-methoxyphenyl)-1-hexyl-2-(4-nitrophenyl)-4-phenyl-1H-imidazole]
most higher inhibition activity: Ps. aeruginosa | St. Aereus | E. Coli | Candida albicans
